# Assay results published in patent US9669003B2, “Use of flavone and flavanone derivatives in preparation of sedative and hypnotic drugs” (priority 2012, dated 2017).
# Marks after values point to notes of the source that are not given here.
# Tests used:
# Format in all cases: in vivo
# Kunming mice [1] = test: Influence on autonomic activity of normal mice (ZIL-2 mice autonomic activity meter, counts within 10 min); conditions: intragastric, x ± s, n = 10; for Times of activities in 1 h after drug administration/10 min: 1 h after administration; for Times of activities in 2 h after drug administration/10 min: 2 h after administration; for Times of activities in 24 h after drug administration/10 min: 24 h after administration
# How it was run: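 Kunming mice (10 per group, half each sex) were dosed at 25, 50 or 100 mg/kg in 0.5% CMC-Na. Spontaneous activity counts over 10 min were recorded at 1 h, 2 h and 24 h post-dose. Groups were compared by ANOVA with Dunnett's test after Levene's check.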
# Kunming mice [2] = test: Influence on hypnosis effect with pentobarbital sodium doses at the threshold (50 mg/kg i.p.); conditions: pentobarbital sodium 50 mg/kg i.p. 60 min later, x ± s, n = 10
# How it was run: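 Kunming mice (10/group, half each sex) received compound in 0.5% CMC-Na intragastrically at 25, 50 or 100 mg/kg; 60 min later given 0.3% sodium pentobarbital 50 mg/kg i.p. Sleep latency and duration recorded by loss of righting reflex over 1 min; ANOVA and χ2 for sleep incidence.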
# Kunming mice [3] = test: Influence on hypnosis effect with pentobarbital sodium doses below the threshold (25 mg/kg i.p.); conditions: pentobarbital sodium 25 mg/kg i.p. 60 min later, sleep observed in 30 min, n = 10
# How it was run: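 Kunming mice (10 per group, half female) given single oral doses of 25, 50 or 100 mg/kg in 0.5% CMC-Na; 60 min later pentobarbital sodium 25 mg/kg i.p. Sleep (righting reflex lost >1 min) scored within 30 min as percentage asleep, χ2 test.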
# [4] = 25 mg/kg intragastric single dose
# [5] = 50 mg/kg intragastric single dose
# [6] = 100 mg/kg intragastric single dose
# [7] = test drug 25 mg/kg intragastric single dose
# [8] = test drug 50 mg/kg intragastric single dose
# [9] = test drug 100 mg/kg intragastric single dose
Structure (SMILES),Times of activities in 1 h after drug administration/10 min (Kunming mice [1]; 25 mg/kg),Times of activities in 2 h after drug administration/10 min (Kunming mice [1]; 25 mg/kg),Times of activities in 24 h after drug administration/10 min (Kunming mice [1]; 25 mg/kg),Times of activities in 1 h after drug administration/10 min (Kunming mice [1]; 50 mg/kg),Times of activities in 2 h after drug administration/10 min (Kunming mice [1]; 50 mg/kg),Times of activities in 24 h after drug administration/10 min (Kunming mice [1]; 50 mg/kg),Times of activities in 1 h after drug administration/10 min (Kunming mice [1]; 100 mg/kg),Times of activities in 2 h after drug administration/10 min (Kunming mice [1]; 100 mg/kg),Times of activities in 24 h after drug administration/10 min (Kunming mice [1]; 100 mg/kg),duration of sleep (Kunming mice [2]; [4]),time to sleep (Kunming mice [2]; [4]),duration of sleep (Kunming mice [2]; [5]),time to sleep (Kunming mice [2]; [5]),duration of sleep (Kunming mice [2]; [6]),time to sleep (Kunming mice [2]; [6]),Number of sleeping animals (Kunming mice [3]; [7]),rate of sleeping (%) (Kunming mice [3]; [7]),Number of sleeping animals (Kunming mice [3]; [8]),rate of sleeping (%) (Kunming mice [3]; [8]),Number of sleeping animals (Kunming mice [3]; [9]),further results
C#Cc1ccc(-c2cc(=O)c3cc(F)c(C(=O)O)c(O)c3o2)cc1CCCCCCCCCCCCCCCCCCCC [Example 33],304.9 ± 39.2 /10 min,298.2 ± 35.6 /10 min,273.2 ± 80.8 /10 min,266.4 ± 51.6 /10 min,247.1 ± 58.3 /10 min,284.7 ± 78.7 /10 min,179.0 ± 49.1 /10 min,165.8 ± 52.3 /10 min,318.4 ± 80.5 /10 min,30.43 ± 22.06 min,4.81 ± 2.37 min,36.53 ± 13.21 min,4.62 ± 1.75 min,51.56 ± 20.75 min,3.82 ± 1.12 min,5,50** %,6,60** %,7,rate of sleeping (%) (Kunming mice [3]; [9]): 70*** %
"COc1cc(-c2cc(=O)c3c(OC)c(OC)c(OC)cc3o2)cc(OC)c1OC [Example 13, 5,6,7,3′,4′,5′-hexamethoxyl-flavone]",293.2 ± 47.1 /10 min,278.5 ± 42.8 /10 min,302.8 ± 67.2 /10 min,280.7 ± 61.3 /10 min,278.6 ± 47.5 /10 min,309.2 ± 81.3 /10 min,247.2 ± 35.6 /10 min,225.3 ± 44.2 /10 min,291.5 ± 69.5 /10 min,39.25 ± 17.25 min,4.26 ± 1.23 min,57.33 ± 29.41 min,3.93 ± 1.15 min,59.23 ± 25.36 min,3.83 ± 1.21 min,4,40* %,6,60** %,7,rate of sleeping (%) (Kunming mice [3]; [9]): 70** %
"COc1ccc(O)cc1-c1cc(=O)c2c(O)cc(OC)c(OC)c2o1 [Example 12, 5,5′-dihydroxyl-7,8,2′-trimethoxyl-flavone]",255.9 ± 39.8 /10 min,284.2 ± 41.7 /10 min,303.1 ± 69.1 /10 min,179.5 ± 51.4 /10 min,168.5 ± 54.3 /10 min,317.9 ± 55.3 /10 min,153.7 ± 48.4 /10 min,135.9 ± 48.7 /10 min,302.1 ± 89.0 /10 min,22.71 ± 26.17 min,5.43 ± 2.05 min,28.68 ± 27.56 min,5.01 ± 2.00 min,38.55 ± 23.27 min,4.25 ± 1.16 min,5,50** %,8,80*** %,8,rate of sleeping (%) (Kunming mice [3]; [9]): 80*** %
CC=Cc1cc(-c2cc(=O)c3c(CCCCC)cc(C(=O)O)cc3o2)cc(C(=O)O)c1C#N [Example 26],310.7 ± 59.5 /10 min,279.0 ± 32.2 /10 min,313.5 ± 68.8 /10 min,284.7 ± 46.1 /10 min,267.1 ± 43.5 /10 min,314.1 ± 82.3 /10 min,263.6 ± 42.4 /10 min,245.6 ± 40.8 /10 min,322.6 ± 61.2 /10 min,23.01 ± 25.99 min,5.38 ± 2.22 min,28.69 ± 26.56 min,5.12 ± 2.32 min,65.28 ± 46.29 min,3.24 ± 1.16 min,4,40* %,5,50** %,7,rate of sleeping (%) (Kunming mice [3]; [9]): 70** %
"COc1ccc(-c2cc(=O)c3c(O)c(OC)c(OC)c(OC)c3o2)cc1OC [Example 11, 5-hydroxyl-6,7,8,3′,4′-penta methoxyl-flavone]",243.1 ± 53.5 /10 min,237.3 ± 45.3 /10 min,291.7 ± 72.5 /10 min,187.2 ± 41.4 /10 min,179.7 ± 46.0 /10 min,287.8 ± 89.1 /10 min,115.9 ± 48.5 /10 min,126.7 ± 48.7 /10 min,315.2 ± 75.4 /10 min,47.25 ± 14.42 min,3.42 ± 1.37 min,63.75 ± 20.27 min,3.13 ± 1.21 min,78.54 ± 19.27 min,2.13 ± 1.33 min,5,50** %,6,60** %,8,rate of sleeping (%) (Kunming mice [3]; [9]): 80*** %
CC=Cc1cc(C(=O)O)c2c(=O)cc(-c3cc(C#N)c(F)c(C(=O)O)c3)oc2c1 [Example 22],320.3 ± 54.3 /10 min,291.3 ± 42.0 /10 min,301.3 ± 76.6 /10 min,299.4 ± 42.7 /10 min,255.3 ± 41.3 /10 min,302.6 ± 91.8 /10 min,281.5 ± 48.7 /10 min,225.6 ± 45.3 /10 min,315.4 ± 78.2 /10 min,30.12 ± 20.60 min,4.79 ± 2.43 min,37.78 ± 14.02 min,4.68 ± 1.59 min,52.57 ± 20.74 min,3.88 ± 1.18 min,6,60** %,7,70** %,9,rate of sleeping (%) (Kunming mice [3]; [9]): 90*** %
"COc1ccc(-c2cc(=O)c3c(OC)c(OC)c(OC)c(OC)c3o2)cc1 [Example 8, 5,6,7,8,4′-penta methoxyl-flavone]",301.3 ± 43.5 /10 min,290.2 ± 39.6 /10 min,286.4 ± 75.2 /10 min,262.1 ± 55.5 /10 min,244.7 ± 53.9 /10 min,299.8 ± 76.4 /10 min,185.7 ± 41.6 /10 min,167.2 ± 48.5 /10 min,280.4 ± 84.2 /10 min,21.52 ± 16.93 min,5.40 ± 1.83 min,29.13 ± 26.44 min,5.05 ± 1.73 min,66.82 ± 33.63 min,3.21 ± 1.32 min,5,50** %,6,60** %,8,rate of sleeping (%) (Kunming mice [3]; [9]): 80*** %
